From patent publication US12515032B2, “Gelatin methacryloyl-based microneedle patches for delivery of water-insoluble drugs” (THE REGENTS OF THE UNIVERSITY OF CALIFORNIA, priority 2020, dated 2026)

Legend:
[1] = Curcumin loading capacity / solubility in GelMA and GelMA-β-CD solution (absorbance at 430 nm); format: physicochemical
Description: Curcumin was selected as a model for water-insoluble drug or therapeutic agent 26 (FIG. 11) to test the loading efficacy of GelMA-β-CD. Aqueous drug suspension was used to compare the loading capacity relative to unmodified GelMA. […] The intermolecular interaction between CD and curcumin primarily dictated the desirable properties of water-insoluble drug 26 delivery.
GelMA-β-(D) and curcumin inclusion complex preparation: To prepare the inclusion complex, excess amount of curcumin (5 mg) was added to pre-dissolved GelMA-β-CD solution in 1 mL DPBS (20%, g/mL) and stirred at 37° C. for 30 min to form the inclusion complex solution where curcumin could be encapsulated within the cavity of CD and the resulting solution was named as GelMA-β-CD/CUR. For comparison of curcumin solubility, GelMA was used as a control and the resulting solution was named as GelMA/CUR. After the equilibrium was reached, the suspension was centrifuged at 12,000 rpm for 10 min; supernatants were withdrawn and further filtered through a 0.22 μm film. The inclusion complex solutions were measured for absorbance at 430 nm to assess solubility. The prepared GelMA-β-CD/CUR solution was also used for aqueous stability study compared to free curcumin dissolved in DPBS (DPBS:ethanol as 4:1). The GelMA-β-CD/CUR solutions were freeze-dried for additional FTIR and DSC analysis.

[2] = Aqueous stability of curcumin in DPBS (absorbance at 430 nm); format: physicochemical; conditions: after 1 h at 37° C. incubation
Description: The stability of curcumin was monitored by measuring absorbance at 430 nm for both the inclusion complex and free curcumin dissolved in DPBS (DPBS diluted with ethanol). The percentage of remaining curcumin was estimated by measuring the absorbance compared to the initial absorbance over a 6 h period. […] GelMA-β-(D) and curcumin inclusion complex preparation: […] For comparison of curcumin solubility, GelMA was used as a control and the resulting solution was named as GelMA/CUR. After the equilibrium was reached, the suspension was centrifuged at 12,000 rpm for 10 min; supernatants were withdrawn and further filtered through a 0.22 μm film. The inclusion complex solutions were measured for absorbance at 430 nm to assess solubility. The prepared GelMA-β-CD/CUR solution was also used for aqueous stability study compared to free curcumin dissolved in DPBS (DPBS:ethanol as 4:1). The GelMA-β-CD/CUR solutions were freeze-dried for additional FTIR and DSC analysis.

Compound	Loading capacity (solubility) of curcumin [1] [µg/mL]	Percentage of remaining curcumin [2]
gelatin methacryloyl [GelMA]	84.8 ± 13.5	
COc1cc(/C=C/C(=O)CC(=O)/C=C/c2ccc(O)c(OC)c2)ccc1O [curcumin]		approximately 45%
